Measurements as given in patent publication US20250276989A1, “GPR40 AGONISTS” (Kallyope, Inc., priority 2020, published 2025).

System: not listed separately
Assay: In vivo plasma levels in mice
Settings: male C57BL/6J mice, 30 mg/kg oral gavage, 2 h post-dose; total exposure x free fraction from plasma protein binding
Procedure: Male C57BL/6J mice 10-12 weeks old were dosed with test article (30 mg/kg) or vehicle by oral gavage. Animals were euthanized with carbon dioxide at 2 h or 5 h post dose. Blood was collected for measurement of plasma concentrations of test article. Unbound exposure was calculated by multiplying the measured total exposure by the free fraction as assessed from plasma protein binding.
Plasma protein binding to isotonic phosphate buffer (PBS) containing 10% C57 BL/6 mouse plasma was determined using equilibrium dialysis of plasma spiked with test article (2 μM) against a dialysis buffer (100 mM sodium phosphate and 150 mM NaCl). At the end of the dialysis (4 hr), aliquots of the plasma and buffer were processed by protein precipitation for LC-MS/MS analysis to quantitate the test article.
Results for exemplary compounds (total exposure in plasma and unbound exposure in plasma; ratio of EC50 to unbound exposure in plasma) are shown in Table 2.

Exposure (nM) (unbound), unbound exposure in plasma | Structure (SMILES)
2.5 | COc1ccc(F)c([C@H]2CC[C@H](COc3cccc(C(CP(C)(=O)O)C4CC4)c3)CC2)c1 (single isomer, unassigned) [Compound 5, (2-cyclopropyl-2-(3-(((trans)-4-(2-fluoro-5-methoxyphenyl)cyclohexyl)methoxy)phenyl)ethyl)(methyl)phosphinic acid]

Same assay, conditions: male C57BL/6J mice, 30 mg/kg oral gavage, 5 h post-dose; total exposure x free fraction from plasma protein binding

Exposure (nM) (unbound), unbound exposure in plasma | Structure (SMILES)
2.3 | COc1ccc(F)c([C@H]2CC[C@H](COc3cc([C@@H](CP(C)(=O)O)C4CC4)ccn3)CC2)c1 [Compound 9, ((S)-2-cyclopropyl-2-(2-(((trans)-4-(2-fluoro-5-methoxyphenyl)cyclohexyl)methoxy)pyridin-4-yl)ethyl)(methyl)phosphinic acid]

Same assay, conditions: mouse, plasma; male C57BL/6J mice, 30 mg/kg oral gavage, 2 h post-dose; read-out: Exposure (nM), total exposure in plasma

concentration at 2 h [nM] | Structure (SMILES)
8300 | COc1ccc(F)c([C@H]2CC[C@H](COc3cccc(C(CP(C)(=O)O)C4CC4)c3)CC2)c1 (single isomer, unassigned) [Compound 5, (2-cyclopropyl-2-(3-(((trans)-4-(2-fluoro-5-methoxyphenyl)cyclohexyl)methoxy)phenyl)ethyl)(methyl)phosphinic acid]

Same assay, conditions: mouse, plasma; male C57BL/6J mice, 30 mg/kg oral gavage, 5 h post-dose; read-out: Exposure (nM), total exposure in plasma

concentration at 5 h [nM] | Structure (SMILES)
1160 | COc1ccc(F)c([C@H]2CC[C@H](COc3cc([C@@H](CP(C)(=O)O)C4CC4)ccn3)CC2)c1 [Compound 9, ((S)-2-cyclopropyl-2-(2-(((trans)-4-(2-fluoro-5-methoxyphenyl)cyclohexyl)methoxy)pyridin-4-yl)ethyl)(methyl)phosphinic acid]

Molecular target: T1, human GPR40 (Homo sapiens, UniProt O14842)
T1 construct: host or cells: CHO-K1
Assay: Inositol phosphate accumulation assay (IP1 HTRF) in CHO-K1 cells expressing human GPR40
Assay type: cell-based
Settings: 90 min stimulation
Procedure: CHO-K1 cells expressing human GPR40 were purchased from DiscoverX (95-1005C2). HEK293 cells expressing mouse FFAR1 were prepared using a mouse FFAR1 carrying plasmid purchased from OriGene Technologies (MR222997). The cells were transfected using Lipofectamine 2000 using manufacturer instructions and stable cell line was established from a single cell using geneticine selection. Assay ready frozen (ARF) cells were prepared and used throughout the study.
The assay was performed in a 384-well plate format using IP1 assay kit from Cis-Bio. ARF cells expressing FFAR1 (mouse and human) were thawed, washed and then plated in the appropriate medium (F12 based medium for CHO hFFAR1 and DMEM based medium for HEK293 mFFAR1—both were supplemented with 10% FBS and penicillin/streptomycin). 20 μL of 3.5×10^5 cells/mL were plated on a Poly D-Lysine coated 384-well white plate. The cells were then incubated for 16 hr at 37° C./5% CO2. After 16 hr the medium was removed and 15 μL of stimulation buffer containing the test compounds was added to the cells. The plates were then incubated for 90 min at 37° C./5% CO2. 5 μL of detection buffer (prepared as described in the IP-one kit) was added to each well and the plates were incubated at RT for 1 hr.
[…] was measured using ClarioSTAR plate reader, calculating the ratio between emissions at 665 nm and 620 nm (HTRF ratio). HTRF ratio for positive (Max) and negative (Min) controls were used to normalize HTRF data and generate values for % activity. EC50 and Max activity values were determined using a standard 4-parameter fit.

T1 sequence (O14842 whole entry): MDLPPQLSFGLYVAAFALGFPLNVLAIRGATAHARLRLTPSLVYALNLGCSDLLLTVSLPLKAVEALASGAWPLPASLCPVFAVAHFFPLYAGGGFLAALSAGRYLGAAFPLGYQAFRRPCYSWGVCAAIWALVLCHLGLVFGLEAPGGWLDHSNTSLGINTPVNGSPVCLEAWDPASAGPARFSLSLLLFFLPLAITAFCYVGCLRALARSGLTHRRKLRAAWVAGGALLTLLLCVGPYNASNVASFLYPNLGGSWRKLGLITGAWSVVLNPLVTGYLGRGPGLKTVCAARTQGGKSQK

EC50 [nM] | Structure (SMILES)
≤ 50 | COc1ccc(F)c([C@H]2CC[C@H](COc3cccc(C(CP(C)(=O)O)C4CC4)c3)CC2)c1 (single isomer, unassigned) [Compound 5, (2-cyclopropyl-2-(3-(((trans)-4-(2-fluoro-5-methoxyphenyl)cyclohexyl)methoxy)phenyl)ethyl)(methyl)phosphinic acid]
50 to 250 | COc1ccc(F)c([C@H]2CC[C@H](COc3cccc(C(CP(C)(=O)O)C4CC4)c3)CC2)c1 (single isomer, unassigned) [Compound 6, (2-cyclopropyl-2-(3-(((trans)-4-(2-fluoro-5-methoxyphenyl)cyclohexyl)methoxy)phenyl)ethyl)(methyl)phosphinic acid]
≤ 50 | COc1ccc(F)c([C@H]2CC[C@H](COc3cccc(C(CP(C)(=O)O)C4CC4)c3)CC2)c1 (single isomer, unassigned) [Compound 7, (2-cyclopropyl-2-(3-(((trans)-4-(2-fluoro-5-methoxyphenyl)cyclohexyl)methoxy)phenyl)ethyl)(methyl)phosphinic acid]
50 to 250 | COc1ccc(F)c([C@H]2CC[C@H](COc3cccc(C(CP(C)(=O)O)C4CC4)c3)CC2)c1 (single isomer, unassigned) [Compound 8, (2-cyclopropyl-2-(3-(((trans)-4-(2-fluoro-5-methoxyphenyl)cyclohexyl)methoxy)phenyl)ethyl)(methyl)phosphinic acid]
> 1000 | COc1ccc(F)c([C@H]2CC[C@H](COc3cccc(C(CP(=O)(O)O)C4CC4)c3)CC2)c1 (stereo partly drawn) [Compound 2, (2-cyclopropyl-2-(3-(((trans)-4-(2-fluoro-5-methoxyphenyl)cyclohexyl)methoxy)phenyl)ethyl)phosphonic acid]
> 1000 | COc1ccc(F)c([C@H]2CC[C@H](COc3cccc(C(CS(=O)(=O)O)C4CC4)c3)CC2)c1 (stereo partly drawn) [Compound 3, 2-cyclopropyl-2-(3-(((trans)-4-(2-fluoro-5-methoxyphenyl)cyclohexyl)methoxy)phenyl)ethanesulfonic acid]
> 1000 | COc1ccc(F)c([C@H]2CC[C@H](COc3cccc(C(C4CC4)C(C)P(=O)(O)O)c3)CC2)c1 (stereo partly drawn) [Compound 4, (1-cyclopropyl-1-(3-(((trans)-4-(2-fluoro-5-methoxyphenyl)cyclohexyl)methoxy)phenyl)propan-2-yl)phosphonic acid]
≤ 50 | COc1ccc(F)c([C@H]2CC[C@H](COc3cc([C@@H](CP(C)(=O)O)C4CC4)ccn3)CC2)c1 [Compound 9, ((S)-2-cyclopropyl-2-(2-(((trans)-4-(2-fluoro-5-methoxyphenyl)cyclohexyl)methoxy)pyridin-4-yl)ethyl)(methyl)phosphinic acid]
≤ 50 | COc1ccc(CCCC(C)(C)C)c(N2CCC(COc3cccc([C@@H](CP(C)(=O)O)C4CC4)c3)CC2)c1 [Compound 10, ((S)-2-cyclopropyl-2-(3-((1-(2-(4,4-dimethylpentyl)-5-methoxyphenyl)piperidin-4-yl)methoxy)phenyl)ethyl)(methyl)phosphinic acid]
≤ 50 | COc1ccc(CCCC(C)(C)C)c(N2CCC(COc3cc([C@@H](CP(C)(=O)O)C4CC4)ccn3)CC2)c1 [Compound 11, ((S)-2-cyclopropyl-2-(2-((1-(2-(4,4-dimethylpentyl)-5-methoxyphenyl)piperidin-4-yl)methoxy)pyridin-4-yl)ethyl)(methyl)phosphinic acid]
≤ 50 | COc1ccc(CCCC(C)(C)C)c(N2CCC(COc3cc([C@@H](C)CP(C)(=O)O)ccn3)CC2)c1 [Compound 12, ((R)-2-(2-((1-(2-(4,4-dimethylpentyl)-5-methoxyphenyl)piperidin-4-yl)methoxy)pyridin-4-yl)propyl)(methyl)phosphinic acid]
250 to 1000 | COc1ccc(CCCC(C)(C)C)c(N2CCC(COc3cc([C@H](C)CP(C)(=O)O)ccn3)CC2)c1 [Compound 13, ((S)-2-(2-((1-(2-(4,4-dimethylpentyl)-5-methoxyphenyl)piperidin-4-yl)methoxy)pyridin-4-yl)propyl)(methyl)phosphinic acid]
50 to 250 | COc1ccc(CCCC(C)(C)C)c(N2CCC(COc3cccc([C@@H](C)CP(C)(=O)O)c3)CC2)c1 [Compound 14, ((R)-2-(3-((1-(2-(4,4-dimethylpentyl)-5-methoxyphenyl)piperidin-4-yl)methoxy)phenyl)propyl)(methyl)phosphinic acid]
≤ 50 | COc1ccc(CCCC(C)(C)C)c(N2CCC(COc3cccc([C@H](C)CP(C)(=O)O)c3)CC2)c1 [Compound 15, ((S)-2-(3-((1-(2-(4,4-dimethylpentyl)-5-methoxyphenyl)piperidin-4-yl)methoxy)phenyl)propyl)(methyl)phosphinic acid]
> 1000 | COc1ccc(CCCC(C)(C)C)c(N2CCC(COc3cccc(CC(C)P(=O)(O)O)c3)CC2)c1 (stereo not drawn) [Compound 16, (1-(3-((1-(2-(4,4-dimethylpentyl)-5-methoxyphenyl)piperidin-4-yl)methoxy)phenyl)propan-2-yl)phosphonic acid]
250 to 1000 | CC[C@H](Cc1cccc(OCC2CCN(c3cc(OC)ccc3CCCC(C)(C)C)CC2)c1)P(C)(=O)O [Compound 17, ((R)-1-(3-((1-(2-(4,4-dimethylpentyl)-5-methoxyphenyl)piperidin-4-yl)methoxy)phenyl)butan-2-yl)(methyl)phosphinic acid]
250 to 1000 | CC[C@@H](Cc1cccc(OCC2CCN(c3cc(OC)ccc3CCCC(C)(C)C)CC2)c1)P(C)(=O)O [Compound 18, ((S)-1-(3-((1-(2-(4,4-dimethylpentyl)-5-methoxyphenyl)piperidin-4-yl)methoxy)phenyl)butan-2-yl)(methyl)phosphinic acid]
250 to 1000 | COc1ccc(CCCC(C)(C)C)c(N2CCC(COc3cccc([C@H](C)CP(=O)(O)O)c3)CC2)c1 [Compound 19, (S)-(2-(3-((1-(2-(4,4-dimethylpentyl)-5-methoxyphenyl)piperidin-4-yl)methoxy)phenyl)propyl)phosphonic acid]
> 1000 | COc1ccc(CCCC(C)(C)C)c(N2CCC(COc3cccc([C@@H](C)CP(=O)(O)O)c3)CC2)c1 [Compound 20, (R)-(2-(3-((1-(2-(4,4-dimethylpentyl)-5-methoxyphenyl)piperidin-4-yl)methoxy)phenyl)propyl)phosphonic acid]

Structure (SMILES) | EC50 [nM]
COc1ccc(F)c([C@H]2CC[C@H](COc3cccc(C(CP(=O)(O)OC)C4CC4)c3)CC2)c1 (stereo partly drawn) [Compound 1, methyl hydrogen (2-cyclopropyl-2-(3-(((trans)-4-(2-fluoro-5-methoxyphenyl)cyclohexyl)methoxy)phenyl)ethyl)phosphonate] | 250 to 1000
